Measurements: patent publication US4073926A, “Mono-quaternary ammonium salts of hydantoin and compositions thereof” (Glyco Chemicals, Inc., priority 1976, dated 1978)
Like-named read-outs stand apart in the source and are kept apart here.

Experiments:
Type in all cases: cell-based
[1] = test system: Staphylococcus aureus No. 6538; test: Serial dilution anti-bacterial test in BBL Trypticase Soy Broth; parameters: Test Culture and Results Staphyloccus aureus # 6538: key: -: Denotes no test; +: Denotes growth; 0: Denotes no growth; conditions: for MIC: Staphylococcus aureus, read-out: Minimum Inhibitory Centration
Method: (§1) The product compound of the Example 1 was tested for anti-bacterial and anti-fungal activity and compared to the known commercial broad spectrum bactericide/fungicide, according to the following procedure.
(§2) Samples of the compound were prepared for testing by making a stock solution in sterile distilled water containing 10,000 parts per million. Serial dilutions of each sample were prepared in appropriate culture media which were then innoculated with the test cultures and incubated. The tests employing bacteria were performed in BBL Trypticase Soy Broth incubated for 48 hours at 35° C. The tests employing A. niger were performed in Difco Sabouraud Dextrose Broth incubated for 5 days at 26° C.
(§3) The test cultures were Staphylococcus aureus No. 6538, Pseudomonas aeruginosa No. 9027 and Aspergillus niger No. 16404.

[2] = test system: Pseudomonas aeruginosa No. 9027; test: as above; conditions: for MIC: Pseudomonas aeruginosa, read-out: Minimum Inhibitory Centration; as to Test Culture and Results Pseudomonas aeruginosa # 9027: key: -: Denotes no test; +: Denotes growth; 0: Denotes no growth
Method: as §1, §2, §3

[3] = test system: Aspergillus niger No. 16404; test: Serial dilution anti-fungal test in Difco Sabouraud Dextrose Broth; parameters: Test Culture and Results Aspergillis niger # 16404: key: -: Denotes no test; +: Denotes growth; 0: Denotes no growth; conditions: for MIC: Aspergillus niger, NO.16404, 120 h, read-out: Minimum Inhibitory Centration
Method: as §1, §2, §3

[4] = 100 parts per million, 48 hours at 35° C
[5] = 200 parts per million, 48 hours at 35° C
[6] = 300 parts per million, 48 hours at 35° C
[7] = 400 parts per million, 48 hours at 35° C
[8] = 500 parts per million, 48 hours at 35° C
[9] = 600 parts per million, 48 hours at 35° C
[10] = 700 parts per million, 48 hours at 35° C
[11] = 800 parts per million, 48 hours at 35° C
[12] = 900 parts per million, 48 hours at 35° C
[13] = 1000 parts per million, 48 hours at 35° C
[14] = 100 parts per million, 5 days at 26° C
[15] = 200 parts per million, 5 days at 26° C
[16] = 300 parts per million, 5 days at 26° C
[17] = 400 parts per million, 5 days at 26° C
[18] = 500 parts per million, 5 days at 26° C
[19] = 600 parts per million, 5 days at 26° C
[20] = 700 parts per million, 5 days at 26° C
[21] = 800 parts per million, 5 days at 26° C
[22] = 900 parts per million, 5 days at 26° C
[23] = 1000 parts per million, 5 days at 26° C

| SMILES | Test Culture and Results Staphyloccus aureus # 6538 [1, 4] | Test Culture and Results Staphyloccus aureus # 6538 [1, 5] | Test Culture and Results Staphyloccus aureus # 6538 [1, 6] | Test Culture and Results Staphyloccus aureus # 6538 [1, 7] | Test Culture and Results Staphyloccus aureus # 6538 [1, 8] | Test Culture and Results Staphyloccus aureus # 6538 [1, 9] | Test Culture and Results Staphyloccus aureus # 6538 [1, 10] | Test Culture and Results Staphyloccus aureus # 6538 [1, 11] | Test Culture and Results Staphyloccus aureus # 6538 [1, 12] | Test Culture and Results Staphyloccus aureus # 6538 [1, 13] | Test Culture and Results Pseudomonas aeruginosa # 9027 [2, 4] | Test Culture and Results Pseudomonas aeruginosa # 9027 [2, 5] | Test Culture and Results Pseudomonas aeruginosa # 9027 [2, 6] | Test Culture and Results Pseudomonas aeruginosa # 9027 [2, 7] | Test Culture and Results Pseudomonas aeruginosa # 9027 [2, 8] | Test Culture and Results Pseudomonas aeruginosa # 9027 [2, 9] | Test Culture and Results Pseudomonas aeruginosa # 9027 [2, 10] | Test Culture and Results Pseudomonas aeruginosa # 9027 [2, 11] | Test Culture and Results Pseudomonas aeruginosa # 9027 [2, 12] | Test Culture and Results Pseudomonas aeruginosa # 9027 [2, 13] | further results |
| --- | --- | --- | --- | --- | --- | --- | --- | --- | --- | --- | --- | --- | --- | --- | --- | --- | --- | --- | --- | --- | --- |
| CCCCCCCCCCCC[N+](C)(C)CCCN1C(=O)NC(C)(C)C1=O [Example 1] | 0 | 0 | 0 | 0 | 0 | 0 | 0 | 0 | 0 | 0 | + | + | + | + | + | 0 | 0 | 0 | 0 | 0 | Test Culture and Results Staphyloccus aureus # 6538 ([1]; 1.56 parts per million, 48 hours at 35° C): +; Test Culture and Results Staphyloccus aureus # 6538 ([1]; 3.12 parts per million, 48 hours at 35° C): +; Test Culture and Results Staphyloccus aureus # 6538 ([1]; 6.25 parts per million, 48 hours at 35° C): +; Test Culture and Results Staphyloccus aureus # 6538 ([1]; 12.5 parts per million, 48 hours at 35° C): +; Test Culture and Results Staphyloccus aureus # 6538 ([1]; 25 parts per million, 48 hours at 35° C): 0; Test Culture and Results Staphyloccus aureus # 6538 ([1]; 50 parts per million, 48 hours at 35° C): 0; MIC ([1]; NO.6538, Staph. aureus # 6538, 48 hours at 35° C): 25 µg/mL; MIC ([2]; NO.9027, Pseudo. aerugin # 9027, 48 hours at 35° C): 600 µg/mL; Test Culture and Results Aspergillis niger # 16404 [3, 14]: +; Test Culture and Results Aspergillis niger # 16404 [3, 15]: +; Test Culture and Results Aspergillis niger # 16404 [3, 16]: 0; Test Culture and Results Aspergillis niger # 16404 [3, 17]: 0; Test Culture and Results Aspergillis niger # 16404 [3, 18]: 0; Test Culture and Results Aspergillis niger # 16404 [3, 19]: 0; Test Culture and Results Aspergillis niger # 16404 [3, 20]: 0; Test Culture and Results Aspergillis niger # 16404 [3, 21]: 0; Test Culture and Results Aspergillis niger # 16404 [3, 22]: 0; Test Culture and Results Aspergillis niger # 16404 [3, 23]: 0; MIC ([3]; Asperg. niger # 16404, 5 days at 26° C): 300 µg/mL |
| ClC=CC[N+]12CN3CN(CN(C3)C1)C2.[Cl-] [Dowicil 200, 1-(3-chloroallyl)-3,5,7-triaza-1-azonia adamantane chloride, reference compound] | + | 0 | 0 | 0 | 0 | 0 | 0 | 0 | 0 | 0 | + | + | + | + | + | + | + | + | 0 | 0 | MIC ([1]; NO.6538, 48 h): 200 µg/mL; MIC ([2]; NO.9027, 48 h): 900 µg/mL; Test Culture and Results Aspergillis niger # 16404 [3, 14]: +; Test Culture and Results Aspergillis niger # 16404 [3, 15]: +; Test Culture and Results Aspergillis niger # 16404 [3, 16]: +; Test Culture and Results Aspergillis niger # 16404 [3, 17]: +; Test Culture and Results Aspergillis niger # 16404 [3, 18]: +; Test Culture and Results Aspergillis niger # 16404 [3, 19]: +; Test Culture and Results Aspergillis niger # 16404 [3, 20]: +; Test Culture and Results Aspergillis niger # 16404 [3, 21]: 0; Test Culture and Results Aspergillis niger # 16404 [3, 22]: 0; Test Culture and Results Aspergillis niger # 16404 [3, 23]: 0; MIC [3]: 800 µg/mL |
